≈ marks a conversion by molar mass, not a printed value. Each block holds one molecule with its values, some of them ahead of it. Calls of active or inactive are those of the source. The calls are words filed in the database; no cut-off is given here.
How the values were obtained:
Candida albicans [1] = experiment: Antifungal activity against Candida albicans ATCC 10231 by twofold serial broth dilution method; format: functional
Candida tropicalis [2] = experiment: Antifungal activity against Candida tropicalis LM 64 at 1 mg/mL by agar-well diffusion assay; format: functional
Candida tropicalis [3] = experiment: Antifungal activity against Candida tropicalis ATCC 20021 at 1 mg/mL by agar-well diffusion assay; format: functional
Yarrowia deformans [4] = experiment: Antifungal activity against Torulopsis petrophilum ATCC 20225 by twofold serial broth dilution method; format: functional
Candida parapsilosis [5] = experiment: Antifungal activity against Candida parapsilosis ATCC 20224 by twofold serial broth dilution method; format: functional; details: Lodderomyces parapsilosis
Candida albicans [6] = experiment: Antifungal activity against Candida stellatoidea SA-I by twofold serial broth dilution method; format: functional
Candida tropicalis [7] = experiment: Antifungal activity against Candida tropicalis LM 64 by twofold serial broth dilution method; format: functional
Candida albicans [8] = experiment: Antifungal activity against Candida albicans B311 by twofold serial broth dilution method; format: functional
Candida tropicalis [9] = experiment: Antifungal activity against Candida tropicalis ATCC 20021 by twofold serial broth dilution method; format: functional
Torula [10] = experiment: Antifungal activity against Torula cremoris NRRL 7495 at 1 mg/mL by agar-well diffusion assay; format: functional
Candida albicans [11] = experiment: Antifungal activity against Candida albicans ATCC 10231 at 1 mg/mL by agar-well diffusion assay; format: functional
Candida tropicalis [12] = experiment: Antifungal activity against Candida tropicalis ATCC 20326 at 1 mg/mL by agar-well diffusion assay; format: functional
Candida parapsilosis [13] = experiment: Antifungal activity against Candida parapsilosis ATCC 20224 at 1 mg/mL by agar-well diffusion assay; format: functional
Starmerella magnoliae = experiment: Antifungal activity against Candida magnoliae ATCC 12573 at 1 mg/mL by agar-well diffusion assay; format: functional
Candida tropicalis [14] = experiment: Antifungal activity against Candida tropicalis ATCC 20326 by twofold serial broth dilution method; format: functional
Candida albicans [15] = experiment: Antifungal activity against Candida stellatoidea SA-I at 1 mg/mL by agar-well diffusion assay; format: functional
Yarrowia deformans [16] = experiment: Antifungal activity against Torulopsis petrophilum ATCC 20225 at 1 mg/mL by agar-well diffusion assay; format: functional
Candida albicans [17] = experiment: Antifungal activity against Candida albicans NIH B311 infected in mouse assessed as reduction in number of recovered colony-forming units assessed per mg of kidney at 1 mg/kg, ip administered 7 and 24 hrs after infection measured 16 hrs after final injection by tenfold serial dilution method relative to control; format: functional; parameters: scale not given: the % may be the effect or the level left; details: route intraperitoneal
Candida albicans [18] = experiment: Antifungal activity against Candida albicans B311 at 1 mg/mL by agar-well diffusion assay; format: functional
Torula [19] = experiment: Antifungal activity against Torula cremoris NRRL 7495 by twofold serial broth dilution method; format: functional
Saccharomyces cerevisiae = experiment: Antimicrobial activity against Saccharomyces cerevisiae at 1 mg/mL by agar-well diffusion assay; format: functional, organism-based
Pseudomonas aeruginosa = experiment: Antimicrobial activity against Pseudomonas aeruginosa at 1 mg/mL by agar-well diffusion assay; format: functional, organism-based
Bacillus subtilis = experiment: Antimicrobial activity against Bacillus subtilis at 1 mg/mL by agar-well diffusion assay; format: functional, organism-based
Aspergillus fumigatus = experiment: Antimicrobial activity against Aspergillus fumigatus at 1 mg/mL by agar-well diffusion assay; format: functional
Candida albicans [20] = experiment: Antimicrobial activity against Candida albicans at 1 mg/mL by agar-well diffusion assay; format: functional; details: for zone of inhibition at 1000 µg/mL: Candida albicans, read-out: IZ
[21] = test system: Mycobacterium intracellulare; experiment: Antimicrobial activity against Mycobacterium intracellular at 1 mg/mL by agar-well diffusion assay; format: functional; details: read-out: IZ
Cryptococcus neoformans = experiment: Antimicrobial activity against Cryptococcus neoformans at 1 mg/mL by agar-well diffusion assay; format: functional
Escherichia coli = experiment: Antimicrobial activity against Escherichia coli at 1 mg/mL by agar-well diffusion assay; format: functional, organism-based
Aspergillus flavus = experiment: Antimicrobial activity against Aspergillus flavus at 1 mg/mL by agar-well diffusion assay; format: functional
[22] = test system: Trichophyton mentagrophytes; experiment: Antimicrobial activity against Trichophyton mentagrophytes at 1 mg/mL by agar-well diffusion assay; format: functional
Nannizzia gypsea = experiment: Antimicrobial activity against Microsporum gypseum at 1 mg/mL by agar-well diffusion assay; format: functional
Staphylococcus aureus = experiment: Antimicrobial activity against Staphylococcus aureus at 1 mg/mL by agar-well diffusion assay; format: functional, organism-based
Mus musculus [23] = experiment: Toxicity in CD1 mouse assessed as body weight at 40 mg/kg, ip after day 1; format: organism-based; parameters: dose 40 mg/kg, route intraperitoneal; details: in vivo
Mus musculus [24] = experiment: Toxicity in CD1 mouse assessed as body weight at 40 mg/kg, ip administered for 14 consecutive days measured after day 21; format: organism-based; parameters: dose 40 mg/kg, route intraperitoneal; details: in vivo
Mus musculus [25] = experiment: Toxicity in CD1 mouse assessed as body weight at 40 mg/kg, ip administered for 14 consecutive days measured after day 14; format: organism-based; parameters: dose 40 mg/kg, route intraperitoneal; details: in vivo

MIC (Candida albicans [1]): 3.12 µg/mL (≈ 3.38 µM)
MIC (Yarrowia deformans [4]): 0.2 µg/mL (≈ 0.216 µM)
MIC (Candida parapsilosis [5]): 1.56 µg/mL (≈ 1.69 µM)
MIC (Candida albicans [6]): 3.12 µg/mL (≈ 3.38 µM)
MIC (Candida tropicalis [7]): 1.56 µg/mL (≈ 1.69 µM)
MIC (Candida albicans [8]): 1.56 µg/mL (≈ 1.69 µM)
MIC (Candida tropicalis [9]): 3.12 µg/mL (≈ 3.38 µM)
MIC (Candida tropicalis [14]): 1.56 µg/mL (≈ 1.69 µM)
MIC (Torula [19]): 3.12 µg/mL (≈ 3.38 µM)
SMILES: C[C@@H]1[C@H](O)[C@@H](C)/C=C/C=C/C=C/C=C/C=C/C=C/C=C/[C@H](O[C@@H]2O[C@H](C)[C@@H](O)[C@H](N)[C@@H]2O)C[C@@H]2O[C@](O)(C[C@@H](O)C[C@@H](O)[C@H](O)CC[C@@H](O)C[C@@H](O)CC(=O)O[C@H]1C)C[C@H](O)[C@H]2C(=O)O [AMPHOTERICIN B]
zone of inhibition at 1000 µg/mL (Candida tropicalis [2]; Candida tropicalis, read-out: IZ): 7 mm
zone of inhibition at 1000 µg/mL (Candida tropicalis [3]; Candida tropicalis, ATCC 20021, read-out: IZ): 7 mm
zone of inhibition at 1000 µg/mL (Torula [10]; Torula, NRRL 7495, read-out: IZ): 7 mm
zone of inhibition at 1000 µg/mL (Candida albicans [11]; Candida albicans, ATCC 10231, read-out: IZ): 7 mm
zone of inhibition at 1000 µg/mL (Candida tropicalis [12]; Candida tropicalis, ATCC 20326, read-out: IZ): 7 mm
zone of inhibition at 1000 µg/mL (Candida parapsilosis [13]; Lodderomyces parapsilosis, ATCC 20224, read-out: IZ): 3 mm
zone of inhibition at 1000 µg/mL (Starmerella magnoliae; ATCC 12573, read-out: IZ): 7 mm
zone of inhibition at 1000 µg/mL (Candida albicans [15]; Candida albicans, read-out: IZ): 7 mm
zone of inhibition at 1000 µg/mL (Yarrowia deformans [16]; Yarrowia deformans, ATCC 20225, read-out: IZ): 7 mm
Activity (Candida albicans [17]): 99.82%
zone of inhibition at 1000 µg/mL (Candida albicans [18]; Candida albicans, B311, read-out: IZ): 7 mm

SMILES: COC(=O)C1=CC[C@@]23CC[C@@H]([C@@](C)(/C=C/C=C(\C)C(=O)OC)OC2=O)[C@@]3(OC(C)=O)CC1
Activity (Saccharomyces cerevisiae): inactive
Activity (Pseudomonas aeruginosa): inactive
Activity (Bacillus subtilis): inactive
Activity (Aspergillus fumigatus): inactive
zone of inhibition at 1000 µg/mL (Candida albicans [20]): < 1 mm
zone of inhibition at 1000 µg/mL [21]: 1 mm
Activity (Cryptococcus neoformans): inactive
Activity (Escherichia coli): inactive
Activity (Aspergillus flavus): inactive
Activity [22]: inactive
Activity (Nannizzia gypsea): inactive
Activity (Staphylococcus aureus): inactive

SMILES: C/C(=C\C=C\[C@@]1(C)OC(=O)[C@]23CC=C(C(=O)O)CC[C@]2(O)[C@H]1CC3)C(=O)O [DEMETHOXYDEACETOXYPSEUDOLARIC ACID B]
Activity (Saccharomyces cerevisiae): inactive
Activity (Pseudomonas aeruginosa): inactive
Activity (Bacillus subtilis): inactive
Activity (Aspergillus fumigatus): inactive
zone of inhibition at 1000 µg/mL (Candida albicans [20]): < 1 mm
zone of inhibition at 1000 µg/mL [21]: 1 mm
Activity (Cryptococcus neoformans): inactive
Activity (Escherichia coli): inactive
Activity (Aspergillus flavus): inactive
zone of inhibition at 1000 µg/mL ([22]; Trichophyton mentagrophytes, read-out: IZ): 3 mm
Activity (Nannizzia gypsea): inactive
Activity (Staphylococcus aureus): inactive

SMILES: COC(=O)C1=CC[C@@]23CC[C@@H]([C@@](C)(/C=C/C=C(\C)C(=O)[O-])OC2=O)[C@@]3(OC(C)=O)CC1.[K+] [POTASSIUM PSEUDOLARATE B]
MFC (Candida albicans [1]): 6.25 µg/mL
MIC (Candida albicans [1]): 1.56 µg/mL
inhibition zone (IZ) (Candida tropicalis [2]): >12 mm
inhibition zone (IZ) (Candida tropicalis [3]): 7 mm
MFC (Yarrowia deformans [4]): 12.5 µg/mL
MIC (Yarrowia deformans [4]): 0.78 µg/mL
MFC (Candida parapsilosis [5]): 25 µg/mL
MIC (Candida parapsilosis [5]): 3.12 µg/mL
Activity (Mus musculus [23]): 24.2 g
MFC (Candida albicans [6]): 6.25 µg/mL
MIC (Candida albicans [6]): 3.12 µg/mL
MFC (Candida tropicalis [7]): 6.25 µg/mL
MIC (Candida tropicalis [7]): 0.78 µg/mL
inhibition zone (IZ) (Aspergillus fumigatus): 3 mm
MFC (Candida albicans [8]): 6.25 µg/mL
MIC (Candida albicans [8]): 3.12 µg/mL
inhibition zone (IZ) (Candida albicans [20]): 7 mm
MFC (Candida tropicalis [9]): 6.25 µg/mL
MIC (Candida tropicalis [9]): 3.12 µg/mL
inhibition zone (IZ) (Torula [10]): 3 mm
inhibition zone (IZ) (Candida albicans [11]): 7 mm
inhibition zone (IZ) (Candida tropicalis [12]): 7 mm
Activity (Mus musculus [24]): 25.6 g
inhibition zone (IZ) (Candida parapsilosis [13]): 7 mm
inhibition zone (IZ) (Starmerella magnoliae): <1 mm
MFC (Candida tropicalis [14]): 6.25 µg/mL
MIC (Candida tropicalis [14]): 1.56 µg/mL
inhibition zone (IZ) (Candida albicans [15]): 7 mm
inhibition zone (IZ) (Yarrowia deformans [16]): 7 mm
inhibition zone (IZ) [22]: 7 mm
inhibition zone (IZ) (Candida albicans [18]): 7 mm
Activity (Mus musculus [25]): 25.4 g
inhibition zone (IZ) (Nannizzia gypsea): 7 mm
MFC (Torula [19]): 12.5 µg/mL
MIC (Torula [19]): 12.5 µg/mL

Source: ChEMBL document CHEMBL1159211, “Antifungal evaluation of pseudolaric acid B, a major constituent of Pseudolarix kaempferi” (J Nat Prod, 1995)
